Results as given in patent US12070036B2, “Methods and compositions comprising nematode signalling compounds” (PHERONYM, INC., priority 2018, dated 2024).

Tested on: RKN J2
Experiment: RKN J2 dispersal away from the pheromone application site
Format: in vivo, Meloidogyne spp.
Settings: for activity as a repellent (in words): single ascarosides vs presented together
Description: FIG. 2. RKN J2 responds to pheromones purified from S. carpocapsae growth medium within 2 hours. The 57% MeOH extraction only contains one pheromone, ascr #10, which is also secreted by RKN. […] The 73% MeOH extraction includes both ascr #10 and ascr #18. Both of these pheromones are released by RKN J2. We can already see a synergy and recognition and 15% more J2 left the pheromone application spot due to recognition of the pheromone signals. […] The figure is representative of the 2 independent experiments repeated in time and each experiment has 6 independent replications.
FIG. 3. RKN J2 response to pheromones extracted from S. feltiae growth medium within 2 h of exposure. Control has only water. Pheromones resuspended in water. The experiment has 5 independent replications.
We extracted the pheromones with 58% and 73% Methyl alcohol using S. carpocapsae insect host cadavers, the growth medium for S. carpocapsae. Then the extracts were dried and re-suspended in MILLIQ water. Centrifuged at 6000 r.c.f. to remove insoluble material and then dried using a speed vac. […] This particular fraction only included one ascaroside, ascr #10, common between RKN and S. carpocapsae. […] The 73% MeOH extract contained two common pheromones, ascr #10 and ascr #18, between RKN and S. carpocapsae. The two pheromones together caused 15% more RKN J2 to move away from the application site compared to water control.
We tested this with one more Steinernema species growth medium. We extracted the pheromones using 70% MeOH from the S. feltiae growth medium (insect host cadavers). This particular extraction contains the two common ascarosides, ascr #10 and ascr #18, between RKN and Steinernema species.
Since ascr #10 and […] are the only common ascarosides between Steinernema and RKN species, we looked at other species that release ascarosides that RKN J2 release.

| SMILES | RKN J2 response to pheromones (in words) (RKN J2, within 2 hours, vs water control) | activity as a repellent (in words) |
| --- | --- | --- |
| C[C@H](CCCCCCC(=O)O)O[C@@H]1O[C@@H](C)[C@H](O)C[C@H]1O [ascr #10] | did not elicit any response | not active |
| C[C@H](CCCCCCCCC(=O)O)O[C@@H]1O[C@@H](C)[C@H](O)C[C@H]1O [ascr #18] |  | not active |
